Laboratory results: patent US11053204B2, “Pyrimidinyloxy benzene derivatives as herbicides” (FMC Corporation, priority 2015, dated 2021)

Legend:
Format in all cases: in vivo
[1] = tested on: ducksalad (Heteranthera limosa); assay: Test B flooded paddy test, plant response rating; conditions: 250 g ai/ha; Flood; scale of 0 to 100 where 0 is no effect and 100 is complete control; 13 to 15 days
Method in brief: (§1)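 Ratings were visual and made relative to untreated controls after 13 to 15 greenhouse days.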

[2] = tested on: barnyardgrass (Echinochloa crus-galli); assay: Test B flooded paddy test, plant response rating; conditions: 250 g ai/ha; Flood; scale of 0 to 100 where 0 is no effect and 100 is complete control; 13 to 15 days
Method in brief: as §1

rice (Oryza sativa) = assay: Test B flooded paddy test, plant response rating; conditions: 250 g ai/ha; Flood; scale of 0 to 100 where 0 is no effect and 100 is complete control; 13 to 15 days
Method in brief: as §1

[3] = tested on: sedge, umbrella (small-flower umbrella sedge, Cyperus difformis); assay: Test B flooded paddy test, plant response rating; conditions: 250 g ai/ha; Flood; scale of 0 to 100 where 0 is no effect and 100 is complete control; 13 to 15 days
Method in brief: as §1

[4] = tested on: Italian ryegrass (Lolium multiflorum); assay: Test A postemergence, visual injury rating; conditions: 0 to 100 scale, 0 is no effect, 100 is complete control, approximately 10 days
Method in brief: (§2)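 Visual 0–100 rating (100 = complete control) taken about 10 d post-treatment relative to untreated checks. Preemergence: directed soil spray on sown loam/sand pots. Postemergence: seedlings 2–10 cm, 1–2 leaf. Non-phytotoxic solvent formulation with surfactant.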

[5] = tested on: blackgrass (Alopecurus myosuroides); assay: Test A postemergence, visual injury rating; conditions: 0 to 100 scale, 0 is no effect, 100 is complete control, approximately 10 days
Method in brief: as §2

[6] = tested on: galium (catchweed bedstraw, Galium aparine); assay: Test A postemergence, visual injury rating; conditions: 0 to 100 scale, 0 is no effect, 100 is complete control, approximately 10 days
Method in brief: as §2

[7] = tested on: pigweed (Amaranthus retroflexus); assay: Test A postemergence, visual injury rating; conditions: 0 to 100 scale, 0 is no effect, 100 is complete control, approximately 10 days
Method in brief: as §2

[8] = tested on: ragweed (common ragweed, Ambrosia elatior); assay: Test A postemergence, visual injury rating; conditions: 0 to 100 scale, 0 is no effect, 100 is complete control, approximately 10 days
Method in brief: as §2

[9] = tested on: wheat (Triticum aestivum); assay: Test A postemergence, visual injury rating; conditions: 0 to 100 scale, 0 is no effect, 100 is complete control, approximately 10 days
Method in brief: as §2

[10] = tested on: barnyardgrass (Echinochloa crus-galli); assay: Test A postemergence, visual injury rating; conditions: 0 to 100 scale, 0 is no effect, 100 is complete control, approximately 10 days
Method in brief: as §2

corn (Zea mays) = assay: Test A postemergence, visual injury rating; conditions: 0 to 100 scale, 0 is no effect, 100 is complete control, approximately 10 days
Method in brief: as §2

[11] = tested on: giant foxtail (Setaria faberii); assay: Test A postemergence, visual injury rating; conditions: 0 to 100 scale, 0 is no effect, 100 is complete control, approximately 10 days
Method in brief: as §2

kochia (Kochia scoparia) [12] = assay: Test A postemergence, visual injury rating; conditions: 0 to 100 scale, 0 is no effect, 100 is complete control, approximately 10 days
Method in brief: as §2

[13] = tested on: Italian ryegrass (Lolium multiflorum); assay: Test A preemergence, visual injury rating
Method in brief: as §2

[14] = tested on: pigweed (Amaranthus retroflexus); assay: Test A preemergence, visual injury rating
Method in brief: as §2

[15] = tested on: ragweed (common ragweed, Ambrosia elatior); assay: Test A preemergence, visual injury rating
Method in brief: as §2

[16] = tested on: barnyardgrass (Echinochloa crus-galli); assay: Test A preemergence, visual injury rating
Method in brief: as §2

[17] = tested on: giant foxtail (Setaria faberii); assay: Test A preemergence, visual injury rating
Method in brief: as §2

kochia (Kochia scoparia) [18] = assay: Test A preemergence, visual injury rating
Method in brief: as §2

[19] = 31 g ai/ha, 0 to 100 scale, 0 no effect, 100 complete control
[20] = 125 g ai/ha, 0 to 100 scale (0 no effect, 100 complete control)

## FC(F)(F)CCCc1c(Cl)cccc1Oc1ncc(Cl)cn1 [Compound 122]
[1]
  Plant response rating, Ducksalad: 100
[2]
  Plant response rating, Barnyardgrass: 80
Rice (Oryza sativa)
  Plant response rating, Rice: 40
[3]
  Plant response rating, Sedge, Umbrella: 100
[4]; 31 g ai/ha
  Ryegrass, Italian plant response rating: 0
[4]; 125 g ai/ha
  Ryegrass, Italian plant response rating: 20
[5]; 31 g ai/ha
  Blackgrass plant response rating: 20
[5]; 125 g ai/ha
  Blackgrass plant response rating: 60
[6]; 31 g ai/ha
  Galium plant response rating: 30
[6]; 125 g ai/ha
  Galium plant response rating: 60
[7]; 31 g ai/ha
  Pigweed plant response rating: 70
[7]; 125 g ai/ha
  Pigweed plant response rating: 100
[8]; 31 g ai/ha
  Ragweed plant response rating: 0
[8]; 125 g ai/ha
  Ragweed plant response rating: 10
[9]; 31 g ai/ha
  Wheat plant response rating: 0
[9]; 125 g ai/ha
  Wheat plant response rating: 0
[10]; 31 g ai/ha
  Barnyardgrass plant response rating: 10
[10]; 125 g ai/ha
  Barnyardgrass plant response rating: 50
Corn (Zea mays); 31 g ai/ha
  Corn plant response rating: 10
Corn (Zea mays); 125 g ai/ha
  Corn plant response rating: 20
[11]; 31 g ai/ha
  Foxtail, Giant plant response rating: 10
[11]; 125 g ai/ha
  Foxtail, Giant plant response rating: 40
Kochia (Kochia scoparia) [12]; 31 g ai/ha
  Kochia plant response rating: 80
Kochia (Kochia scoparia) [12]; 125 g ai/ha
  Kochia plant response rating: 80
[13]; [19]
  Plant response rating, Ryegrass, Italian: 0
[13]; [20]
  Plant response rating, Ryegrass, Italian: 30
[14]; [19]
  Plant response rating, Pigweed: 40
[14]; [20]
  Plant response rating, Pigweed: 90
[15]; [19]
  Plant response rating, Ragweed: 0
[15]; [20]
  Plant response rating, Ragweed: 0
[16]; [19]
  Plant response rating, Barnyardgrass: 30
[16]; [20]
  Plant response rating, Barnyardgrass: 90
[17]; [19]
  Plant response rating, Foxtail, Giant: 0
[17]; [20]
  Plant response rating, Foxtail, Giant: 40
Kochia (Kochia scoparia) [18]; [19]
  Plant response rating, Kochia: 10
Kochia (Kochia scoparia) [18]; [20]
  Plant response rating, Kochia: 70

## O=C(OCC(Cl)CCl)c1c(Br)cccc1Oc1ncc(Cl)cn1 (centres unmarked) [Compound 97]
[1]
  Plant response rating, Ducksalad: 70
[2]
  Plant response rating, Barnyardgrass: 0
Rice (Oryza sativa)
  Plant response rating, Rice: 0
[3]
  Plant response rating, Sedge, Umbrella: 75
[4]; 31 g ai/ha
  Ryegrass, Italian plant response rating: 20
[4]; 125 g ai/ha
  Ryegrass, Italian plant response rating: 30
[5]; 31 g ai/ha
  Blackgrass plant response rating: 0
[5]; 125 g ai/ha
  Blackgrass plant response rating: 20
[6]; 31 g ai/ha
  Galium plant response rating: 100
[6]; 125 g ai/ha
  Galium plant response rating: 100
[7]; 31 g ai/ha
  Pigweed plant response rating: 20
[7]; 125 g ai/ha
  Pigweed plant response rating: 50
[8]; 31 g ai/ha
  Ragweed plant response rating: 10
[8]; 125 g ai/ha
  Ragweed plant response rating: 20
[9]; 31 g ai/ha
  Wheat plant response rating: 0
[9]; 125 g ai/ha
  Wheat plant response rating: 0
[10]; 31 g ai/ha
  Barnyardgrass plant response rating: 10
[10]; 125 g ai/ha
  Barnyardgrass plant response rating: 20
Corn (Zea mays); 31 g ai/ha
  Corn plant response rating: 10
Corn (Zea mays); 125 g ai/ha
  Corn plant response rating: 10
[11]; 31 g ai/ha
  Foxtail, Giant plant response rating: 10
[11]; 125 g ai/ha
  Foxtail, Giant plant response rating: 60
Kochia (Kochia scoparia) [12]; 125 g ai/ha
  Kochia plant response rating: 40
[13]; [19]
  Plant response rating, Ryegrass, Italian: 0
[13]; [20]
  Plant response rating, Ryegrass, Italian: 0
[14]; [19]
  Plant response rating, Pigweed: 0
[14]; [20]
  Plant response rating, Pigweed: 20
[15]; [19]
  Plant response rating, Ragweed: 0
[15]; [20]
  Plant response rating, Ragweed: 0
[16]; [19]
  Plant response rating, Barnyardgrass: 0
[16]; [20]
  Barnyardgrass plant response rating: 10
[17]; [19]
  Plant response rating, Foxtail, Giant: 40
[17]; [20]
  Plant response rating, Foxtail, Giant: 70
Kochia (Kochia scoparia) [18]; [19]
  Plant response rating, Kochia: 0
Kochia (Kochia scoparia) [18]; [20]
  Plant response rating, Kochia: 0
